The IC50 is the concentration at which inhibition is half-maximal.

The target of this test is T1, oestrogen receptor (ER) (Homo sapiens, UniProt P03372).
T1 construct: These MVLN cells express, along with the functional oestrogen receptor (ER), a reporter construct; endogenous in cells; host or cells: MVLN cells (MCF7 derivative with ER-responsive luciferase reporter)
T1 sequence (P03372 1-595): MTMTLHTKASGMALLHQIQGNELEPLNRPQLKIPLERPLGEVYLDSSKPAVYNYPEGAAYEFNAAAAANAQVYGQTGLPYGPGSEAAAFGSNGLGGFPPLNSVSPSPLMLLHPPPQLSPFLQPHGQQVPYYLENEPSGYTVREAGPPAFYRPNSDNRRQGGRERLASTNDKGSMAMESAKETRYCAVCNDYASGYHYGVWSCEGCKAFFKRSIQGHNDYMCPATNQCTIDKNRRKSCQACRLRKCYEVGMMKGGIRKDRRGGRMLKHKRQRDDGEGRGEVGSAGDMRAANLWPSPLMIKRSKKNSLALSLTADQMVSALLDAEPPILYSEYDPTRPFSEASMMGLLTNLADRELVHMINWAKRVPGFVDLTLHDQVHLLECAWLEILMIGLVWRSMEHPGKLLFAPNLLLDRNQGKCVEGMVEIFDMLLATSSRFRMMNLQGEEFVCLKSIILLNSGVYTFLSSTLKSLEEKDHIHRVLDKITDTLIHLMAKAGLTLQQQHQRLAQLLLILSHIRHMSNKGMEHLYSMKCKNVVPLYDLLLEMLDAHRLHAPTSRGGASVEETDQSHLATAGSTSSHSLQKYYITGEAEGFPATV
Kind of test: Anti-oestrogenic action in MVLN cells (inhibition of estradiol-induced luciferase, transactivation antagonism). To be noted: inhibition of estradiol-induced luciferase activity, read-out: Anti-oestrogenic action in vitro: MVLN transactivation antagonism IC50. The test is classed as cell-based. An excerpt:
The anti-oestrogenic action of the claimed pharmacological compounds was investigated in so-called MVLN cells in vitro. MVLN cells are derivatives of the hormone-responsive MCF7 breast cancer cells known by a person skilled in the art. These MVLN cells express, along with the functional oestrogen receptor (ER), a reporter construct, which under ER-activation expresses luciferase. Determination of the activity of the induced luciferase permits a direct conclusion on the oestrogen properties of substances. To investigate the anti-oestrogenic properties of the pharmacological compounds, they were investigated in the presence of oestrogen for their potential for inhibiting the luciferase signal induced by estradiol.
The claimed pharmacological test substances were investigated in MVLN cells for their anti-oestrogenic potential, as described (see Table 2).

As for `CN(CCCCCC1=C(c2cccc(O)c2)CCCc2cc(O)ccc21)CCC[S+]([O-])CCCC(F)(F)C(F)(F)F` (racemic) [Example 4, 8-(3-Hydroxyphenyl)-9-[5-(methyl{3-[(RS)-(4,4,5,5,5-pentafluoropentyl)sulphinyl]propyl}amino)pentyl]-6,7-dihydro-5H-benzo[7]annulen-3-ol], the IC50 stood at 3 nM. Under `CN(CCCCCC1=C(c2cccc(O)c2)CCCc2cc(O)ccc21)CCCCC[S+]([O-])CCCC(F)(F)C(F)(F)F` (racemic) [Example 8, 8-(3-Hydroxyphenyl)-9-[5-(methyl{5-[(RS)-(4,4,5,5,5-pentafluoropentyl)sulphinyl]pentyl}amino)pentyl]-6,7-dihydro-5H-benzo[7]annulen-3-ol] stands 8 nM; under `CN(CCCCCC[S+]([O-])CCCC(F)(F)C(F)(F)F)CCCCCC1=C(c2cccc(O)c2)CCCc2cc(O)ccc21` (racemic) [Example 10, 8-(3-Hydroxyphenyl)-9-[5-(methyl{6-[(RS)-(4,4,5,5,5-pentafluoropentyl)sulphinyl]hexyl}amino)pentyl]-6,7-dihydro-5H-benzo[7]annulen-3-ol], 2 nM. Consider `CN(CCCCCCC1=C(c2cccc(O)c2)CCCc2cc(O)ccc21)CCC[S+]([O-])CCCC(F)(F)C(F)(F)F` (racemic) [Example 12, 8-(3-Hydroxyphenyl)-9-[6-(methyl{3-[(RS)-(4,4,5,5,5-pentafluoropentyl)sulphinyl]propyl}amino)hexyl]-6,7-dihydro-5H-benzo[7]annulen-3-ol], for which the IC50 was 2 nM. The figure for `CN(CCCCCCC1=C(c2cccc(O)c2)CCCc2cc(O)ccc21)CCCC[S+]([O-])CCCC(F)(F)C(F)(F)F` (racemic) [Example 14, 8-(3-Hydroxyphenyl)-9-[6-(methyl{4-[(RS)-(4,4,5,5,5-pentafluoropentyl)sulphinyl]butyl}amino)hexyl]-6,7-dihydro-5H-benzo[7]annulen-3-ol] is 2 nM; for `CN(CCCCCCC1=C(c2cccc(O)c2)CCCc2cc(O)ccc21)CCCCC[S+]([O-])CCCC(F)(F)C(F)(F)F` (racemic) [Example 16, 8-(3-Hydroxyphenyl)-9-[6-(methyl{5-[(RS)-(4,4,5,5,5-pentafluoropentyl)sulphinyl]pentyl}amino)hexyl]-6,7-dihydro-5H-benzo[7]annulen-3-ol] it is 2 nM; for `CN(CCCCCCC1=C(c2cccc(O)c2)CCCc2cc(O)ccc21)CCCCCC[S+]([O-])CCCC(F)(F)C(F)(F)F` (racemic) [Example 18, 8-(3-Hydroxyphenyl)-9-[6-(methyl{6-[(RS)-(4,4,5,5,5-pentafluoropentyl)sulphinyl]hexyl}amino)hexyl]-6,7-dihydro-5H-benzo[7]annulen-3-ol] it is 2 nM. On to `CN(CCCCCCC1=C(c2ccc(O)cc2)CCCc2cc(O)ccc21)CCC[S+]([O-])CCCC(F)(F)C(F)(F)F` (racemic) [Example 26, 8-(4-Hydroxyphenyl)-9-[6-(methyl{3-[(RS)-(4,4,5,5,5-pentafluoropentyl)sulphinyl]propyl}amino)hexyl]-6,7-dihydro-5H-benzo[7]annulen-3-ol], for which the IC50 amounted to 1 nM. On to `CN(CCCCCCC1=C(c2ccc(F)c(O)c2)CCCc2cc(O)ccc21)CCCC[S+]([O-])CCCC(F)(F)C(F)(F)F` (racemic) [Example 30, 8-(4-Fluoro-3-hydroxyphenyl)-9-[6-(methyl{4-[(RS)-(4,4,5,5,5-pentafluoropentyl)sulphinyl]butyl}amino)hexyl]-6,7-dihydro-5H-benzo[7]annulen-3-ol], for which the half-inhibitory concentration (IC50) was found to be 2 nM. Under `CN(CCCCCCC1=C(c2ccc(F)c(O)c2)CCCc2cc(O)ccc21)CCCCC[S+]([O-])CCCC(F)(F)C(F)(F)F` (racemic) [Example 32, 8-(4-Fluoro-3-hydroxyphenyl)-9-[6-(methyl{5-[(RS)-(4,4,5,5,5-pentafluoropentyl)sulphinyl]pentyl}amino)hexyl]-6,7-dihydro-5H-benzo[7]annulen-3-ol] stands 3 nM; under `CN(CCCCCCC1=C(c2ccc(F)c(O)c2)CCCc2cc(O)ccc21)CCCCCC[S+]([O-])CCCC(F)(F)C(F)(F)F` (racemic) [Example 34, 8-(4-Fluoro-3-hydroxyphenyl)-9-[6-(methyl{6-[(RS)-(4,4,5,5,5-pentafluoropentyl)sulphinyl]hexyl}amino)hexyl]-6,7-dihydro-5H-benzo[7]annulen-3-ol], 5 nM; under `CN(CCCCCC1=C(c2cccnc2)CCCc2cc(O)ccc21)CCC[S+]([O-])CCCC(F)(F)C(F)(F)F` (racemic) [Example 40, 9-[5-(Methyl{3-[(RS)-(4,4,5,5,5-pentafluoropentyl)sulphinyl]propyl}amino)pentyl]-8-(3-pyridyl)-6,7-dihydro-5H-benzo[7]annulen-3-ol], 27 nM. Turning to `CN(CCCCCCC1=C(c2cccnc2)CCCc2cc(O)ccc21)CCC[S+]([O-])CCCC(F)(F)C(F)(F)F` (racemic) [Example 43, 9-[6-(Methyl{3-[(RS)-(4,4,5,5,5-pentafluoropentyl)sulphinyl]propyl}amino)hexyl]-8-(3-pyridyl)-6,7-dihydro-5H-benzo[7]annulen-3-ol], the IC50 turned out to be 8 nM. The figure for `[O-][S+](CCCNCCCCCC1=C(c2ccccc2)CCCc2cc(O)ccc21)CCCC(F)(F)C(F)(F)F` (racemic) [Example 50, 9-[5-({3-[(RS)-(4,4,5,5,5-Pentafluoropentyl)sulphinyl]propyl}amino)pentyl]-8-phenyl-6,7-dihydro-5H-benzo[7]annulen-3-ol] is 7 nM; for `CN(CCCCCCC1=C(c2cccc(O)c2)CCCc2cc(O)ccc21)CCC[S+]([O-])CCC(F)(F)F` (racemic) [Example 55, 8-(3-Hydroxyphenyl)-9-[6-(methyl{3-[(RS)-(3,3,3-trifluoropropyl)sulphinyl]propyl}amino)hexyl]-6,7-dihydro-5H-benzo[7]annulen-3-ol] it is 2 nM; for `CN(CCCCCCC1=C(c2ccccc2)CCCc2cc(O)ccc21)CCC[S+]([O-])CCC(F)(F)F` (racemic) [Example 59, 9-[6-(Methyl{3-[(RS)-(3,3,3-trifluoropropyl)sulphinyl]propyl}amino)hexyl]-8-phenyl-6,7-dihydro-5H-benzo[7]annulen-3-ol] it is 10 nM. Regarding `CN(CCCCCCC1=C(c2ccccc2)CCCc2cc(O)ccc21)CCC[S+]([O-])CCC(F)(F)C(F)(F)F` (racemic) [Example 61, 9-[6-(Methyl{3-[(RS)-(3,3,4,4,4-pentafluorobutyl)sulphinyl]propyl}amino)hexyl]-8-phenyl-6,7-dihydro-5H-benzo[7]annulen-3-ol], the IC50 is 9 nM. The figure for `CN(CCCCCCC1=C(c2ccccc2)CCCc2cc(O)ccc21)CCCC[S+]([O-])CCCC(F)(F)C(F)(F)F` (racemic) [Example 66, 9-[6-(Methyl{4-[(RS)-(4,4,5,5,5-pentafluoropentyl)sulphinyl]butyl}amino)hexyl]-8-phenyl-6,7-dihydro-5H-benzo[7]annulen-3-ol] is 5 nM; for `CCN(CCCCCCC1=C(c2ccccc2)CCCc2cc(O)ccc21)CCC[S+]([O-])CCCC(F)(F)C(F)(F)F` (racemic) [Example 68, 9-[6-(Ethyl{3-[(RS)-(4,4,5,5,5-pentafluoropentyl)sulphinyl]propyl}amino)hexyl]-8-phenyl-6,7-dihydro-5H-benzo[7]annulen-3-ol] it is 5 nM; for `[O-][S+](CCCN(CCO)CCCCCCC1=C(c2ccccc2)CCCc2cc(O)ccc21)CCCC(F)(F)C(F)(F)F` (racemic) [Example 70, 9-{6-[(2-Hydroxyethyl){3-[(RS)-(4,4,5,5,5-pentafluoropentyl)sulphinyl]propyl}amino]hexyl}-8-phenyl-6,7-dihydro-5H-benzo[7]annulen-3-ol] it is 2 nM.

Turning to `[O-][S+](CCCN(CCCO)CCCCCCC1=C(c2ccccc2)CCCc2cc(O)ccc21)CCCC(F)(F)C(F)(F)F` (racemic) [Example 72, 9-{6-[(3-Hydroxypropyl){3-[(RS)-(4,4,5,5,5-pentafluoropentyl)sulphinyl]propyl}amino]hexyl}-8-phenyl-6,7-dihydro-5H-benzo[7]annulen-3-ol], the IC50 is 4 nM. Turning to `CC(C)(O)CN(CCCCCCC1=C(c2ccccc2)CCCc2cc(O)ccc21)CCC[S+]([O-])CCCC(F)(F)C(F)(F)F` (racemic) [Example 74, 9-{6-[(2-Hydroxy-2-methylpropyl){3-[(RS)-(4,4,5,5,5-pentafluoropentyl)sulphinyl]propyl}amino]hexyl}-8-phenyl-6,7-dihydro-5H-benzo[7]annulen-3-ol], the IC50 was 3 nM.

For the origin of these results see patent US20150080438A1, “6,7-Dihydro-5H-benzo[7]annulene derivatives, processes for their preparation, pharmaceutical products comprising them and their use for preparing medicaments” (Bayer Intellectual Property GmbH, priority 2011, published 2015).
